US8415371B2, “Methods and kits for treating cluster headache disorders” (priority 2008, dated 2013)
Entries after “also recorded” stand apart in the source; their conditions may differ.

Legend:
[1] = cited from earlier work
[2] = daily prophylactic administration over time; rare; cited from earlier work
[3] = system: treatment-refractory cluster headache patients; experiment: Compassionate use of bromolysergide in treatment-refractory cluster headache patients, daily headache diary (Example 3); assay type: in vivo, human; details: for continuous period of attack quiescence: indicates transition from chronic to episodic form
From the text: (§1) Patients referred to the Pain Clinic at the Hannover Medical School were identified with cluster headache if they met the respective diagnostic criteria of the international classification of headache disorders (Headache Classification Committee of the International Headache Society (2004) The International Classification of Headache Disorders, 2nd edn. Cephalalgia 24 Suppl 1:1-160). In addition, all patients were non-responders to verapamil and other prophylactic medications (i.e., refractory to the prophylactic medications listed in Table 1 for each patient). In accordance with German national and local ethics committee rules, all patients signed an informed consent, in which the patients declared their agreement to participate in this project on the compassionate use of bromolysergide for cluster headache. Patients kept a standardized daily diary of cluster headache symptoms starting at least two weeks prior to bromolysergide administration. Bromolysergide (hydrochloride salt) was manufactured by THCpharm GmbH (Frankfurt am Main, Germany). A purity of >99.2% was identified by HPLC and other analytical tests. Bromolysergide hydrochloride 30 μg per Kg body weight was dissolved into distilled water and then given once every 5 days for a total of 3 doses per os. Alterations in consciousness, thought disturbances, and vital signs (blood pressure, heart rate) were measured during a three to four hour observational period following administration. Patients were asked to continue completing daily headache diaries for the next months or until they experience 3 days of attacks of a starting new cluster series.

[4] = system: treatment-refractory cluster headache patients; experiment: Side effects, consciousness, thought disturbances and vital signs observed three to four hours after bromolysergide administration (Example 3); assay type: in vivo, human
From the text: as §1

[5] = system: subjects diagnosed with chronic cluster headache disorder; experiment: Treatment of chronic cluster headache disorder with bromolysergide, two adult subjects (Example 1); assay type: in vivo, human; details: once every five days
Experimental: The desired amount of bromolysergide (hydrochloride salt) was mixed with dextrose and placed into gelatin capsules for administration to subjects suffering from chronic cluster headache disorder.
Bromolysergide was administered to two adult subjects diagnosed with chronic cluster headache disorder during a cluster period. A dose of 2 mg of 2-bromolysergic acid dethylamide (30 μg/kg body weight) was administered orally to subject 1 three times, once every five days. A dose of 2.5 mg of 2-bromolysergic acid dethylamide (approximately 30 μg/kg body weight) was administered orally to subject 2 three times, once every five days.
Subjects were asked to rate their symptoms following administration of bromolysergide.

[6] = subject 1, 2 mg (30 μg/kg) orally three times, for ten weeks
[7] = subject 2, 2.5 mg orally three times

For `CC[C@@H](CO)NC(=O)[C@@H]1C=C2c3cccc4c3c(cn4C)C[C@H]2N(C)C1` [methysergide], the “dose estimated to be equivalent to 25 micgrograms LSD” value ([1]; Abrahamson et al., J. Asthma Res. 3:81 (1965)) is given as “ca. 4 mg”, the hallucinogenic effect ([1]; supra-therapeutic doses) is given as “hallucinogenic” and the “serious medical complication in the longstanding user” value [2] is given as “fibrotic reactions (retroperitoneal, pulmonary, pleural, and cardiac)”.
In the case of `CCN(CC)C(=O)[C@@H]1C=C2c3cccc4[nH]c(Br)c(c34)C[C@H]2N(C)C1` [bromolysergide, 2-bromolysergic acid diethylamide], the “overall effect on cluster headache cycle, frequency and intensity of attacks” value ([3]; five treatment-refractory patients, three single doses of 30 μg/kg within 10 days, FIG. 1) is reported as “can either break a cluster headache cycle or considerably improve the frequency and intensity of attacks; also recorded: quite effective at breaking cluster headache cycle; also recorded: can break a cluster headache cycle, convert a chronic cluster headache disorder into an episodic cluster headache disorder, and extend the remission period”, the attack frequency ([3]; patient S1, chronic form, 30 μg/kg per os ×3) is reported as “did not show this pronounced attack reduction” and the “decrease of attack intensity” value ([3]; patient S1, chronic form, 30 μg/kg per os ×3, within the first 4 months, continued to drink alcohol) is reported as “about 30%”. The “outcome of cluster period” value ([3]; patient S2, episodic form, 30 μg/kg per os once every 5 days, 3 doses) was “termination of their cluster period”, the remission period ([3]; patient S2, episodic form, 30 μg/kg per os ×3, at last follow-up and continuing) was “six” and the attack frequency ([3]; patient S3, chronic form, 30 μg/kg per os ×3) was “pronounced reduction of attack frequency”. For the same molecule, the “pain intensity during remaining occasional attacks” value ([3]; patient S3, 30 μg/kg per os ×3) was “such reductions of pain intensity during their remaining occasional attacks that they no longer administered an acute intervention”, the “continuous period of attack quiescence” value ([3]; patient S3, 30 μg/kg per os ×3) was “greater than 4 week” and the attack frequency ([3]; patient S4, chronic form, 30 μg/kg per os ×3) was “profound reduction of attack frequency”. The “continuous break of attacks” value ([3]; patient S4, 30 μg/kg per os ×3) was “did not show a continuous 4-week break of attacks”, the “pain intensity during remaining occasional attacks” value ([3]; patient S4, 30 μg/kg per os ×3) was “such reductions of pain intensity during their remaining occasional attacks that they no longer administered an acute intervention” and the attack frequency ([3]; patient S5, chronic form, 30 μg/kg per os ×3) was “pronounced reduction of attack frequency”. The “continuous period of attack quiescence” value ([3]; patient S5, 30 μg/kg per os ×3) was “greater than 4 week”, the “duration of side effect” value ([4]; each of the five subjects, 30 μg/kg per os) was “about 2 hours” and the “changes to heart rate and blood pressure” value ([4]; five patients, during bromolysergide treatment) was “No changes”. The “duration of mild subjective effects” value ([4]; five patients, 30 μg/kg per os) was “one to two”, the “hallucinogenic or psychotic effects” value ([4]; five patients, 30 μg/kg per os) was “No visual hallucinations or distortions occurred nor was there any evidence of delusional thinking or overt psychosis; also recorded: non-hallucinogenic” and the other side effects ([4]; five patients, apart from very mild alterations of subjective state and mild to no sympathetic reactions) was “no other side effects were observed”. For the same molecule, the subjective feelings recorded ([4]; most of the patients, 30 μg/kg per os) was ““flabby” or “light drunk” feelings”, the subjective effects noted ([4]; patient S2, 30 μg/kg per os) was ““funny” feeling, tense muscles, and sweating of their hands” and the Vital signs ([4]; subject S1, 2.5 mg ×3) was “unchanged”. The Side effects ([4]; subject S1, 2.5 mg ×3, cell wraps into r25: “flabby feeling”) was ““flabby”, the Vital signs ([4]; subject S2, 2.0 mg ×3) was “unchanged” and the Side effects ([4]; subject S2, 2.0 mg ×3, cell wraps into r25: “funny feeling”) was ““funny”. For the same molecule, the Side effects ([4]; subject S3, 3.1 mg ×3) was ““slightly”, the Vital signs ([4]; subject S3, 3.1 mg ×3) was “unchanged” and the Side effects ([4]; subject S4, 3.1 mg ×3) was ““slightly”. For the same molecule, the Vital signs ([4]; subject S4, 3.1 mg ×3) was “unchanged”, the Side effects ([4]; subject S5, 2.2 mg ×3) was ““slightly” and the Vital signs ([4]; subject S5, 2.2 mg ×3) was “unchanged”. The “rating of results (Clinical Global Impressions Scale)” value ([5]; subject 1, chronic cluster headache, 2 mg (30 μg/kg) orally three times) was “minimally improved”, the “duration of improvement before reverting to pre-treatment form” value ([5]; subject 1, 2 mg (30 μg/kg) orally three times) was “ten” and the reduction in pain [5, 6] was 30%. For the same molecule, the “reduction of attack frequency” value [5, 6] was 30%, the “rating of results (Clinical Global Impressions Scale)” value ([5]; subject 2, chronic cluster headache for more than 6 years, 2.5 mg (approximately 30 μg/kg) orally three times) was “marked/very much improved” and the “International Headache Society criteria for chronic cluster headache disorder after treatment” value [5, 7] was “no longer met criteria”. The remission of symptoms [5, 7] was “complete or nearly complete remission of symptoms” and the “time free of attacks” value ([5]; subject 2, 2.5 mg orally three times, at last follow-up) was “more than 3 months”.
